US20250270190A1, “KIT INHIBITORS” (BLUEPRINT MEDICINES CORPORATION, priority 2022, published 2025)

Target: T1, c-kit autophosphorylation (Phospho c-Kit Tyr721) in HMC 1.1 (exon 11/13) cells, V654A (Homo sapiens, UniProt P10721, V560G/V654A)
T1 construct: endogenous in cells; host or cells: HMC 1.1 (exon 11/13) cells
Assay: pKIT Meso Scale Discovery (MSD) assay, inhibition of autophosphorylation of KIT, HMC1.1_V654A
Format: cell-based
Details: Table 1, cell line not named for Table 1, b1056 names pKIT HMC1.1_V654A, read-out: Code (IC50 for inhibition of autophosphorylation of KIT, pKIT MSD assay)
How it was run: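 HMC1.1 cells were serum-starved for 4 h in serum-free, iron-free, phenol red-free IMDM, then treated with compound in dose-response for 90 min at 37 °C. Staurosporine and DMSO served as controls. Lysates were analysed by MSD electrochemiluminescence immunoassay for phospho-c-Kit Tyr721, and % inhibition of autophosphorylation was derived.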

T1 sequence (P10721 26-976 V560G/V654A): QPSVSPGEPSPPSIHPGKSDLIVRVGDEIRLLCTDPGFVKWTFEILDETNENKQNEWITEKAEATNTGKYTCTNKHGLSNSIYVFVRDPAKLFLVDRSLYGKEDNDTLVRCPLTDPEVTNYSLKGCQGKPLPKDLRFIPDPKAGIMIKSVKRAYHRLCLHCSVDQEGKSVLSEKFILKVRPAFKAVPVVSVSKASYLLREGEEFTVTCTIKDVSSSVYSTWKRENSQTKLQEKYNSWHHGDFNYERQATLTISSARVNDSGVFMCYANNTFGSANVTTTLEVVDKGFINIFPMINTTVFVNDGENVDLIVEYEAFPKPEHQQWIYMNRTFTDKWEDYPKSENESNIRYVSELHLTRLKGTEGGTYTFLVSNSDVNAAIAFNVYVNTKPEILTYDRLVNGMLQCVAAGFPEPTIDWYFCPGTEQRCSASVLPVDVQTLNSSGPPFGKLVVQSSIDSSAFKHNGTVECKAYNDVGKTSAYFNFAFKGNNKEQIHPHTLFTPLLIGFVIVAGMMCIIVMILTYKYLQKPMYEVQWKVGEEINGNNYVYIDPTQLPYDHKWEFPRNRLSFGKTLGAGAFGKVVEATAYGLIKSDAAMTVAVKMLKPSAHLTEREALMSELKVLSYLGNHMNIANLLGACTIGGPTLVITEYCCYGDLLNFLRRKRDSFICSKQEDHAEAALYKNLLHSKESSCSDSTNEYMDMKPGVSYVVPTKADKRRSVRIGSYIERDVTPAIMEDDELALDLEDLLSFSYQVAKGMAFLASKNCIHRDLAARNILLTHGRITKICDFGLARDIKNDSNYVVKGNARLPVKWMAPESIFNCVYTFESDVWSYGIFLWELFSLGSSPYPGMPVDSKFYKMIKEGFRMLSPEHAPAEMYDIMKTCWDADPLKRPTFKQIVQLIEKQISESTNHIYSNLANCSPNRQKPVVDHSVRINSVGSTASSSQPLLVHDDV

Row | SMILES | IC50 [nM]
1 | CCNc1cc(Nc2cc(N)nc(C(F)F)n2)ncc1C(=O)NCc1ccccn1 [Compound 131, 6-((6-amino-2-(difluoromethyl)pyrimidin-4-yl)amino)-4-(ethylamino)-N-(pyridin-2-ylmethyl)nicotinamide] | < 10
2 | CCCNc1cc(Nc2cc(N)nc(C(F)F)n2)ncc1C(=O)NC [Compound 26, 6-((6-amino-2-(difluoromethyl)pyrimidin-4-yl)amino)-N-methyl-4-(propylamino)nicotinamide] | < 10
3 | CNC(=O)c1cnc(Nc2cc(N)nc(CF)n2)cc1NC1CC1 [Compound 8, 6-((6-amino-2-(fluoromethyl)pyrimidin-4-yl)amino)-4-(cyclopropylamino)-N-methylnicotinamide] | < 10
4 | C[C@H](CF)Nc1cc(Nc2cc(N)nc(C(F)F)n2)ncc1C(=O)NCc1cocn1 [Compound 177, (R)-6-((6-amino-2-(difluoromethyl)pyrimidin-4-yl)amino)-4-((1-fluoropropan-2-yl)amino)-N-(oxazol-4-ylmethyl)nicotinamide] | 10 to 40
5 | CCNC(=O)c1cnc(Nc2cc(N)nc(C(F)F)n2)cc1NC1CC1 [Compound 38, 6-((6-amino-2-(difluoromethyl)pyrimidin-4-yl)amino)-4-(cyclopropylamino)-N-ethylnicotinamide] | < 10
6 | CCNC(=O)c1cnc(Nc2cc(N)nc(C(F)F)n2)cc1N[C@@H](C)CF [Compound 71, (S)-6-((6-amino-2-(difluoromethyl)pyrimidin-4-yl)amino)-N-ethyl-4-((1-fluoropropan-2-yl)amino)nicotinamide] | < 10
7 | CC(C)Oc1cc(Nc2cc(N)nc([C@H](C)F)n2)ncc1-c1cnn(C2COC2)c1 [Compound 129, (S)-2-(1-fluoroethyl)-N4-(4-isopropoxy-5-(1-(oxetan-3-yl)-1H-pyrazol-4-yl)pyridin-2-yl)pyrimidine-4,6-diamine] | < 10
8 | COc1cc(Nc2cc(N)nc(C(F)F)n2)ncc1-c1cnn(C2CCNC2)c1 (stereo not drawn) [Compound 97, 2-(difluoromethyl)-N4-(4-methoxy-5-(1-(pyrrolidin-3-yl)-1H-pyrazol-4-yl)pyridin-2-yl)pyrimidine-4,6-diamine] | 10 to 40
9 | CCNc1cc(Nc2cc(N)nc(CF)n2)ncc1C(=O)NC12CC(CO)(C1)C2 [Compound 96, 6-((6-amino-2-(fluoromethyl)pyrimidin-4-yl)amino)-4-(ethylamino)-N-(3-(hydroxymethyl)bicyclo[1.1.1]pentan-1-yl)nicotinamide] | 10 to 40
10 | C[C@@H](CF)Nc1cc(Nc2cc(N)nc(C(F)F)n2)ncc1C(=O)NCc1ccccn1 [Compound 186, (S)-6-((6-amino-2-(difluoromethyl)pyrimidin-4-yl)amino)-4-((1-fluoropropan-2-yl)amino)-N-(pyridin-2-ylmethyl)nicotinamide] | < 10
11 | CNc1cc(Nc2cc(N)nc(C(F)F)n2)ncc1C(=O)NC12CC(CO)(C1)C2 [Compound 121, 6-((6-amino-2-(difluoromethyl)pyrimidin-4-yl)amino)-N-(3-(hydroxymethyl)bicyclo[1.1.1]pentan-1-yl)-4-(methylamino)nicotinamide] | 10 to 40
12 | Nc1cc(Nc2cc(NC3CC3)c(C(=O)NC3CC3)cn2)nc(C(F)F)n1 [Compound 57, 6-((6-amino-2-(difluoromethyl)pyrimidin-4-yl)amino)-N-cyclopropyl-4-(cyclopropylamino)nicotinamide] | < 10
13 | CNC(=O)c1cnc(Nc2cc(N)nc(CF)n2)cc1NC [Compound 1, 6-((6-amino-2-(fluoromethyl)pyrimidin-4-yl)amino)-N-methyl-4-(methylamino)nicotinamide] | 10 to 40
14 | CCNc1cc(Nc2cc(N)nc([C@H](C)F)n2)ncc1C(=O)NC [Compound 11, (S)-6-((6-amino-2-(1-fluoroethyl)pyrimidin-4-yl)amino)-4-(ethylamino)-N-methylnicotinamide] | < 10
15 | Nc1cc(Nc2cc(OC3CC3)c(-c3cnn([C@H]4CCNC4)c3)cn2)nc(C(F)F)n1 (single isomer, unassigned) [Compound 159, (S)-N4-(4-cyclopropoxy-5-(1-(pyrrolidin-3-yl)-1H-pyrazol-4-yl)pyridin-2-yl)-2-(difluoromethyl)pyrimidine-4,6-diamine or (R)-N4-(4-cyclopropoxy-5-(1-(pyrrolidin-3-yl)-1H-pyrazol-4-yl)pyridin-2-yl)-2-(difluoromethyl)pyrimidine-4,6-diamine] | < 10
16 | CNC(=O)c1cnc(Nc2cc(N)nc(C(F)F)n2)cc1N[C@@H](C)C(F)F [Compound 74, (S)-6-((6-amino-2-(difluoromethyl)pyrimidin-4-yl)amino)-4-((1,1-difluoropropan-2-yl)amino)-N-methylnicotinamide] | < 10

Continued, values first:

Row | IC50 [nM] | SMILES
17 | < 10 | CC(C)(O)Cn1cc(-c2cnc(Nc3cc(N)nc(C(F)F)n3)cc2OC2CC2)cn1 [Compound 173, 1-(4-(6-((6-amino-2-(difluoromethyl)pyrimidin-4-yl)amino)-4-cyclopropoxypyridin-3-yl)-1H-pyrazol-1-yl)-2-methylpropan-2-ol]
18 | < 10 | Nc1cc(Nc2cc(OC(F)(F)F)c(-c3cnn(C4CC4)c3)cn2)nc(C(F)F)n1 [Compound 154, N4-(5-(1-cyclopropyl-1H-pyrazol-4-yl)-4-(trifluoromethoxy)pyridin-2-yl)-2-(difluoromethyl)pyrimidine-4,6-diamine]
19 | < 10 | CN(C)CCn1cc(-c2cnc(Nc3cc(N)nc(C(F)F)n3)cc2OC(F)(F)F)cn1 [Compound 194, 2-(difluoromethyl)-N4-(5-(1-(2-(dimethylamino)ethyl)-1H-pyrazol-4-yl)-4-(trifluoromethoxy)pyridin-2-yl)pyrimidine-4,6-diamine]
20 | < 10 | Cn1cc(-c2cnc(Nc3cc(N)nc(C(F)F)n3)cc2OCC2COC2)cn1 [Compound 104, 2-(difluoromethyl)-N4-(5-(1-methyl-1H-pyrazol-4-yl)-4-(oxetan-3-ylmethoxy)pyridin-2-yl)pyrimidine-4,6-diamine]
21 | < 10 | CC(CF)Oc1cc(Nc2cc(N)nc(C(F)F)n2)ncc1-c1cnn(CC(C)(C)O)c1 (stereo not drawn) [Compound 190, 1-(4-(6-((6-amino-2-(difluoromethyl)pyrimidin-4-yl)amino)-4-((1-fluoropropan-2-yl)oxy)pyridin-3-yl)-1H-pyrazol-1-yl)-2-methylpropan-2-ol]
22 | < 10 | COc1cc(Nc2cc(N)nc(C(F)F)n2)ncc1-c1cnn(C(C)(C)CO)c1 [Compound 122, 2-(4-(6-((6-amino-2-(difluoromethyl)pyrimidin-4-yl)amino)-4-methoxypyridin-3-yl)-1H-pyrazol-1-yl)-2-methylpropan-1-ol]
23 | < 10 | CN[C@H](C)Cn1cc(-c2cnc(Nc3cc(N)nc(C(F)F)n3)cc2OC(F)(F)F)cn1 (single isomer, unassigned) [Compound 196, (R)-2-(difluoromethyl)-N4-(5-(1-(2-(methylamino)propyl)-1H-pyrazol-4-yl)-4-(trifluoromethoxy)pyridin-2-yl)pyrimidine-4,6-diamine or (S)-2-(difluoromethyl)-N4-(5-(1-(2-(methylamino)propyl)-1H-pyrazol-4-yl)-4-(trifluoromethoxy)pyridin-2-yl)pyrimidine-4,6-diamine]
24 | < 10 | Nc1cc(Nc2cc(OC3CC3)c(-c3cnn(CC4CCO4)c3)cn2)nc(C(F)F)n1 (stereo not drawn) [Compound 166, N4-(4-cyclopropoxy-5-(1-(oxetan-2-ylmethyl)-1H-pyrazol-4-yl)pyridin-2-yl)-2-(difluoromethyl)pyrimidine-4,6-diamine]
